The record followed here is patent US20110065783A1, “HYDROXYLATED NEBIVOLOL METABOLITES” (priority 2005, published 2011).

The test system of experiment [1] is human umbilical vein endothelial cells (HUVEC). Nature of the experiment: Peak NO release from HUVEC after acute treatment (porphyrinic probe). The class given is cell-based. The method, then: All measurements presented are recorded in vitro using a sensitive porphyrinic probe. NO release is measured directly from human umbilical vein endothelial cells (HUVEC). HUVEC cells were obtained from American Type Culture Collection (Manassas, Va.) and grown in Ham's F12K medium with 2 mM L-glutamine adjusted to contain 1.5 g/l sodium bicarbonate and supplemented with 0.1 mg/ml heparin and 0.03-0.05 mg/ml endothelial cell growth supplement (ECGS)=10% fetal bovine serum. The HUVEC cells were kept in an atmosphere of elevated CO2 concentration (5%). Nebivolol, its enantiomers, and nebivolol metabolites including the nebivolol glucuronides, 4-hydroxy-5′ phenol metabolite, 4-hydroxy-8′-phenol metabolite, 4-hydroxy, 5-hydroxy, 8-hydroxy metabolites, N-DAD, N-DACA and N-DAAA, are obtained from Mylan Laboratories (Morgantown, W. Va.)
All measurements of endothelial NO release are conducted in Hank's balance solution at 37° C. Cell wells are transferred to a Faraday cage and a porphyrinic sensor (diameter 0.5 mm) is positioned at a distance of 5±2 μm from the surface of the endothelial cells using an inverted microscope (Leica Microsystems, Wetzler, Germany) and a computer-assisted micromanipulator. The sensor operates with a three-electrode system: nanosensor (working electrode), saturated calomel electrode (reference electrode) and platinum wire (counter electrode, 0.5 mm diameter). The three electrodes are connected to a potentiostat/galvanostat PAR273. The baseline is stabilized after about 20 seconds. The test compounds are injected with a nanoinjector on to the surface of the cells following solubilization in buffer. The current proportional to the NO concentration is measured with the sensor, which operates in amperometric mode at a constant potential of 0.63V. Data are acquired with the use of an IBM computer with custom software and amperograms (current vs. time curves) and are recorded with a Guniry FAS1 Femtostat (Warminster, Pa.).
Nanosensors are prepared from carbon fibers. The size of the tip of carbon fiber is reduced from 6 μm to less than 1 μm by temperature controlled burning. The sensors are sensitized to NO by deposition of electrically conductive polymeric porphyrin and covered with a thin layer of Nafion. The prophyrinic microsensor has a response time of 0.1 ms at a micromolar NO concentration and 10 ms at the detection limit of 1 nM.
The nanosensor for NO is calibrated using saturated solution (concentration 1.82 mM verified with the coulometric method). Linear calibration curves are constructed for each sensor from […] before and after measurements of cell activity. The data are presented as the mean±SEM for each of the triplicate measurements. The data (calculation and plotting) are transferred to Microcal Origin Software (OriginLab Corp., Northampton, Mass.).
The HUVEC preparation is stable over the course of these experiments with the cells remaining viable in culture for >24 hours. Under non-stimulating conditions, basal levels of NO release are very low (<30 nM). Measurement of NO release as a function of treatment is conducted in individual endothelial cells. Multiple measurements of NO release can be conducted on single cells following a brief refractory period. For robust statistical analysis, separate cells are used for each concentration and type of drug used in these analyses.

The subject of experiment [2] is HUVECs isolated from White and Black American donors. Nature of the experiment: Acute NO release from endothelial cells of White and Black American donors (electrochemical nanosensors). Particulars: for NO (nM), Black Donors, acute NO release / NO (nM), White Donors, acute NO release: acute drug treatment 1.0 μM, mean±S.D. (n=5); for NO (nM), Black Donors, acute NO release: HUVECs from Black American donors; for NO (nM), White Donors, acute NO release: HUVECs from White donors. The class given is cell-based, human. An excerpt:
Values are mean±S.D. (n=5).
The 4′(R)-hydroxy-5-fluoro-l-nebivolol metabolite also exceeds the activity of nebivolol and even l-nebivolol by >50%. These findings indicate that hydroxy metabolites of nebivolol have distinct and highly reproducible effects on acute NO release in human endothelial cells.
In Table 1 and FIG. 7, the comparative effects of nebivolol, d-nebivolol, l-nebivolol and six stereoselective hydroxy metabolites on NO release are shown for cells harvested from white (open bars) and black American (solid bars) donors. The release of the NO from these endothelial cells was evaluated with electrochemical nanosensors placed within close proximity to the cell surface. […] The 4′(R)-hydroxy-5-fluoro-l-nebivolol metabolite (1689-64B) also exceeds the activity of l-nebivolol by >50%. The metabolite with the least activity is similar to nebivolol. These findings indicate that hydroxy metabolites of nebivolol have distinct and highly reproducible effects on acute NO release in human endothelial cells.

Experiment [3] deals with human endothelial cells. Nature of the experiment: Capacity for NO release in human endothelial cells following chronic administration. It counts as cell-based.

pEC50: −log10 of the molar value.

In turn, `OC(CNCC(O)C1CCc2cc(F)ccc2O1)C1CCc2cc(F)ccc2O1` (racemic) [nebivolol] showed an NO peak release in experiment [1] (5 μM, acute, FIG. 4) of around 225 nm. In experiment [2], the “NO (nM), Black Donors, acute NO release” value came to 148 ± 10 nM and the “NO (nM), White Donors, acute NO release” value is recorded as 218 ± 11 nM.

With `Oc1cc2c(cc1F)OC(C(O)CNCC(O)C1C[C@H](O)c3cc(F)ccc3O1)CC2` (stereo partly drawn) [4 (S)-Hydroxy-7′-fluoro-6′-hydroxy-l-nebivolol], in experiment [2], the “NO (nM), Black Donors, acute NO release” value amounted to 242 ± 12 nM and the “NO (nM), White Donors, acute NO release” value stood at 272 ± 12 nM.

Turning to `OC(CNCC(O)C1C[C@H](O)c2cc(F)ccc2O1)C1CCc2cc(F)ccc2O1` (stereo partly drawn) [4(S)-Hydroxy-l-nebivolol], in experiment [2], the “NO (nM), Black Donors, acute NO release” value is listed as 151 ± 8 nM and the “NO (nM), White Donors, acute NO release” value is reported as 204 ± 12 nM.

For the molecule `OC1CC(C(O)CNCC(O)C2CCc3cc(F)ccc3O2)Oc2ccc(F)cc21` (stereo not drawn) [4-hydroxy nebivolol], in experiment [1] (5 μM, acute, FIG. 4), the “NO release compared with reference agents (in words)” value was “approximates values measured with acetylcholine” and the “peak NO release” value was “exceeds 400 nM”. For the same molecule, the “NO release from human endothelial cells, concentration dependence (in words)” value in experiment [1] (acute administration) is on record as “increase NO release from human endothelial cell in concentration dependent fashion”. In addition, the negative-log EC50 (pEC50) (commonly the negative decadic logarithm of the EC50, by convention in mol/L) in experiment [1] (acute, concentration-response, FIG. 6) was 6.30. In addition, the “capacity for NO release following chronic administration (in words)” value in experiment [3] is “increase the capacity for NO release”.

In the case of `Oc1ccc2c(c1F)CCC(C(O)CNCC(O)C1C[C@@H](O)c3cc(F)ccc3O1)O2` (stereo partly drawn) [4′(R)-Hydroxy-5-fluoro-6-hydroxy-l-nebivolol], in experiment [2], the “NO (nM), Black Donors, acute NO release” value worked out at 316 ± 17 nM and the “NO (nM), White Donors, acute NO release” value stood at 407 ± 27 nM. Further, in experiment [2] (acute treatment, compared with l-nebivolol (b247 also nebivolol)), the “NO release activity in excess of l-nebivolol” value is above 50%.

Turning to `Oc1cc2c(cc1F)OC(C(O)CNCC(O)C1C[C@@H](O)c3cc(F)ccc3O1)CC2` (stereo partly drawn) [4′(R)-Hydroxy-7-fluoro-6-hydroxy-l-nebivolol], in experiment [2], the “NO (nM), Black Donors, acute NO release” value was 383 ± 18 nM and the “NO (nM), White Donors, acute NO release” value was 476 ± 20 nM. For the same molecule, the “NO release, black donors” value in experiment [2] (acute treatment, endothelial cells from black donors) was found to be 383 ± 18 nmol/L. For the same molecule, the “NO release, white donors” value in experiment [2] (acute treatment, endothelial cells from white donors) was 476 ± 20 nmol/L. Also, in experiment [2] (acute treatment, white and black donors), the “increase in NO release as compared to nebivolol” value is “nearly two-fold increase”.

For `OC(CNCC(O)C1C[C@@H](O)c2cc(F)ccc2O1)C1CCc2cc(F)ccc2O1` (stereo partly drawn) [4′(R)-Hydroxy-l-nebivolol], in experiment [2], the “NO (nM), Black Donors, acute NO release” value is 194 ± 10 nM and the “NO (nM), White Donors, acute NO release” value is on record as 237 ± 11 nM.

Consider `Oc1ccc2c(c1F)CCC(C(O)CNCC(O)C1CCc3cc(F)ccc3O1)O2` (stereo not drawn) [5-fluoro-6-hydroxy-l-nebivolol], for which, in experiment [2], the “NO (nM), Black Donors, acute NO release” value amounted to 212 ± 9 nM and the “NO (nM), White Donors, acute NO release” value is reported as 258 ± 20 nM.

For the molecule `Oc1c(F)ccc2c1CCC(C(O)CNCC(O)C1CCc3cc(F)ccc3O1)O2` (stereo not drawn) [5-hydroxy nebivolol], the “peak NO release” value in experiment [1] (10 μM, acute, FIG. 3) is “approximately 220 nM”.

`Oc1cc(F)cc2c1OC(C(O)CNCC(O)C1CCc3cc(F)ccc3O1)CC2` (stereo not drawn) [8-hydroxy nebivolol]: in experiment [1] (10 μM, acute, FIG. 3), the “peak NO release” value was “approximately 220 nM”.

For the molecule `O[C@H](CNC[C@@H](O)[C@H]1CCc2cc(F)ccc2O1)[C@@H]1CCc2cc(F)ccc2O1` [d-nebivolol, reference compound], in experiment [2], the “NO (nM), Black Donors, acute NO release” value came to 87 ± 6 nM and the “NO (nM), White Donors, acute NO release” value is 127 ± 17 nM.

On to `O[C@@H](CNC[C@H](O)[C@H]1CCc2cc(F)ccc2O1)[C@@H]1CCc2cc(F)ccc2O1` [l-nebivolol, reference compound], for which, in experiment [2], the “NO (nM), Black Donors, acute NO release” value is recorded as 192 ± 9 nM and the “NO (nM), White Donors, acute NO release” value stood at 268 ± 12 nM.
